In a melting point compilation (Tetko et al.; mined from patent text by program, amines drawn as free bases though some values may be those of a salt):

melting point	SMILES
195 °C	Nc1cc(OCc2ccccc2)nc(N)n1
257 °C	NC(=O)Nc1cccc2c1C(=O)c1c-2n[nH]c1-c1ccc(N2CCNCC2)cc1
142 to 144 °C	O=C(CC(CCCc1ccccc1)C(=O)O)c1ccc2c3c(oc2c1)CCCC3 (stereo not given)
231 to 233 °C	O=C(O)C1Cc2c([nH]c3ccccc23)C(CO)N1 (stereo not given)
148 to 149 °C	Cc1ccc(N2CCN(Cc3ccc4c(c3)NCCN4)CC2)cc1C
115 to 117 °C	COC(=O)c1cccc(-c2nc(C(Cl)(Cl)Cl)nc(C(Cl)(Cl)Cl)n2)c1
204 to 205 °C	COC(=O)c1cc(C(=O)NC(C)(C)CO)c2cc(Cc3ccc(F)cc3)cnc2c1O
148 to 150 °C	NC(=O)N1CCN(c2nn(-c3ccccc3F)c3ccccc23)CC1
105 °C	CCCCNC(=S)Nc1ccccc1N1CCOCC1
200 to 202 °C	Clc1cccc(Cl)c1C=Nc1c2c(nc3ccccc13)CCCC2
95 to 97 °C	[O-][N+](O)=CCN=Nc1ccccc1
155 to 158 °C	Cn1ncnc1-c1ccc(C(=O)N2Cc3cccn3Cc3ccccc32)cc1
212 to 213 °C	CC(C)Oc1ccc(CN/C=C2\C(=O)NC(=O)c3ccc(Br)cc32)cc1O
212 °C	Cn1cncc1C(O)(c1ccc(Cl)cc1)c1ccc2c(c1)C(c1cccc(Cl)c1)Nc1nnnn1-2 (stereo not given)
270 to 272 °C	COc1ccc(-c2cc(O)nc(C)n2)cc1
92 to 98 °C	O=S(=O)(Cl)c1nc2nc(CF)cc(Cl)n2n1
79 to 80 °C	CCCCCCCCCCCCCCCCCCS(=O)(=O)c1ccc(C)cc1
70 °C	C=Cc1cccc(C(OS(=O)(=O)c2ccc(Cl)cc2)(C(F)(F)F)C(F)(F)F)c1
174 to 175 °C	OC(=S)c1ccc2cccnc2c1O
167 to 170 °C	CCOC(=O)CCc1cc(OCC(=O)NNC(C)=O)nn1Cc1ccc(Cl)cc1Cl
89 to 90 °C	CC(C)c1nn(-c2nnc(C(F)(F)F)s2)cc1CCCO
103 to 106 °C	CC(C)(C)OC(=O)N1CC(CCl)c2c1cc(NC(=O)OCC1c3ccccc3-c3ccccc31)c1ccccc21 (stereo not given)
187 to 190 °C	CCCCOc1ccc2c(=O)c(-c3nnnn3C)cn(C)c2c1
199 to 200 °C	Nc1cc(C(=O)O)cc(S)c1Oc1ccccc1

melting point	SMILES
83 to 85 °C	Cc1cnc(I)c(OCc2ccccc2)c1
98.5 to 100 °C	CN(C)CCCN1c2ccccc2N(C)C(=O)c2cccnc21
> 300 °C	CC1(n2cc(C(=O)O)c(=O)c3cc(F)c(N4CCC(N)C4)c(F)c32)CC1 (stereo not given)
62 to 64 °C	COC(=O)[C@@H]1CCCN1C(=O)C[C@H]1CCc2ccccc2C1
178 to 182 °C	Clc1ccc(C=Cc2nc[nH]n2)cc1
191 to 192 °C	O=c1[nH]nnn1-c1ccc(C(F)(F)F)cc1
136 to 138 °C	CCCCc1nc(C(F)(F)F)c(CO)n1Cc1ccc(-c2ccccc2C#N)cc1
206 to 208 °C	CN1C(=O)NC2(CCN(C(=O)OC(C)(C)C)CC2)C1=O
141 to 142 °C	CCCCOC(=O)N[C@H](C(=O)NCCc1ccc(OCC#Cc2ccc(Cl)cc2)c(OC)c1)C(C)C
85 to 88 °C	CCOC(=O)C(CNC(=O)c1ccccc1)C(=O)C(F)(F)F (stereo not given)
149 to 151 °C	COCCCNS(=O)(=O)Cc1cccc(Nc2cc(-c3ccccc3OC)ncn2)c1
66 to 67 °C	CCCCc1nnc(SCc2ccc(Cl)cc2)n1Cc1ccc(OC(C(=O)O)c2ccccc2)cc1 (stereo not given)
97 to 98 °C	CCOC(=O)Cc1cccc2c(-c3ccccc3)onc12
104 °C	O=C(NCC(=O)N(CC(=O)N1CCCCC1c1ccccc1)c1ccccc1)Nc1cccc(CO)c1 (racemic)
115 to 120 °C	CSCC[C@H](NC(=O)c1cc(NC(Cn2ccnc2)c2ccc(F)cc2)ccc1CCc1ccc(F)cc1)C(=O)O (stereo not given in full)
238 to 240 °C	O=C(Nc1ccccn1)c1cn(-c2ccccc2)c2ccccc2c1=O
213 to 215 °C	O=C(Nc1ccc2c(c1)OC(F)(F)O2)NC12CC3CC(CC(C3)C1)C2
124 to 125 °C	C[C@H](NC(=O)C1(C)Sc2ccccc2NC1=O)C(=O)N[C@H](CCC(=O)O)C(N)=O (stereo not given in full)
105 to 107 °C	COc1ccc(C=CC(=O)O)cc1-c1cc2c(cc1OCCCCCCCO)C(C)(C)CCC2(C)C
102 to 105 °C	CC(C)=CCOC(=O)c1cnn(-c2c(Cl)cc(Cl)cc2Cl)c1N
171 to 173 °C	O=C(CCCN1CCCCC1)c1ccc2[nH]c3ccc(C(=O)CCCN4CCCCC4)cc3c2c1
90 to 92 °C	COC(=O)c1cc(CC#N)cc(CC#N)c1
259 to 260 °C	Nc1nc2ccccc2c2c1ncn2Cc1cc(-c2ccc(F)cc2)no1
118 °C	CC(C)(C)C1=CC(=Cc2cccc([N+](=O)[O-])c2)C=C(C(C)(C)C)C1=O

melting point	SMILES
132 °C	Cc1cc(-c2cscn2)ccc1-c1cc(C(F)(F)F)nn1-c1ccc(S(C)(=O)=O)c(F)c1
140 to 142 °C	Cc1cc(S(=O)(=O)Nc2cccc3ccccc23)c2c(C)ccc(C(C)C)cc1-2
211 to 218 °C	c1ccc(N2CCNNCC2)cc1
166 to 167 °C	CCOC(=O)Cn1c(=O)n(Cc2ccc(Cl)c(Cl)c2)c(=O)c2c(C)c(Br)sc21
80 to 83 °C	O=C(COc1ccccc1)c1ccc(Cl)cc1
212 to 214 °C	CCCCC(CC(=O)Nc1cc(C(N)=O)ccc1C(C)(C)C)c1cc(Cl)c(OC)cc1OC (stereo not given)
145 to 147 °C	O=C(CNCCO)Nc1cccc([N+](=O)[O-])c1
137 to 139 °C	COc1cccc(-c2cc(C3CNC(=O)C3)ccc2OC)c1 (stereo not given)
111 to 113 °C	CS(=O)(=O)c1ccc(-c2cc(C(CCCCCO[N+](=O)[O-])=NO)nn2C2CCCCC2)cc1
112 to 114 °C	CCCCC(Cc1ccc(OCCNC(=O)c2ccc(N3CCCCC3)cc2)cc1)C(=O)O (stereo not given)
137 to 140 °C	Cn1ncnc1COc1nc2c(cc1-c1cccc(F)c1)nnn2-c1c(F)cccc1F
105 to 106 °C	CC(C)c1nc(C(F)(F)F)ccc1C(=O)c1c(S(C)(=O)=O)noc1C1CC1
228 to 232 °C	CC(C)Cn1cnc2c(N)nc3ccc(-n4cccc4)cc3c21
238 to 239 °C	CC(C)(C)OC(=O)Nc1ccc(CN2C(=O)C3(COc4cc5c(cc43)OCCO5)c3ccccc32)cn1 (stereo not given)
> 67 °C	CCCCN(Cc1ccc(-c2ccccc2S(=O)(=O)NC(=O)OC(C)(C)C)cc1)C(=O)N1CCCc2ccccc21
160 to 162 °C	O=C(NCCn1cncn1)c1ccc(Br)cc1
295 to 299 °C	N#Cc1c(N)sc2ccccc2c1=O
178 to 180 °C	Cc1cc(C)c(-n2ccc3c(OCc4ccc(C(F)(F)F)cc4)nn(C)c(=O)c32)c(C)c1
52 °C	O=C(CC1(C=NO)OCCO1)OCc1ccccc1
148 to 149 °C	CCOC(=O)[C@H](CC(C)C)NC(=O)C[C@@H]1CN(CC(C)(C)CO)c2ccc(Cl)cc2[C@@H](c2cccc(OC)c2OC)O1
144 to 146 °C	CCOC(=O)c1ccc(NC(=O)c2ccc(OC)c(OC)c2)c2ccccc12
202 to 203 °C	Cc1nc(-c2ccc(C(F)(F)F)cc2)sc1CSc1ccc(CC(=O)O)cc1
